PubChem BioAssay AID2060343 (Molecular Pharmacology Branch, DTP, NCI, 2025)
pIC50: −log10 of the molar value.

Tested on: 138582-337-R-J1-PDC spheroids with HUVEC/MSC, viability
Experiment: Anticancer human tumor 138582-337-R-J1-PDC patient-derived Merkel cell tumor cell line growth inhibition [IpAb]
Conditions: for pIC50: curve of first compound; for viability, T/C: stronger effect = lower value
In short: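 Combinations with ipatasertib or abemaciclib were tested on tumour spheroids holding HUVEC (25%) and MSC (15%) alongside 60% malignant cells. Top concentration was at or near clinical Cmax (10 microM if undefined), descending in half-log steps.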

[1] = second compound 0.01 µM, first compound 0.0316 µM
[2] = second compound 0.01 µM, first compound 0.1 µM
[3] = second compound 0.0316 µM, first compound 0.0316 µM
[4] = second compound 0.0316 µM, first compound 0.1 µM
[5] = second compound 0.1 µM, first compound 0.0316 µM
[6] = second compound 0.1 µM, first compound 0.1 µM
[7] = second compound 0.316 µM, first compound 0.0316 µM
[8] = second compound 0.316 µM, first compound 0.1 µM
[9] = second compound 1 µM, first compound 0.0316 µM
[10] = second compound 1 µM, first compound 0.1 µM
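Note: spheroids exposed to compounds for seven days.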
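Throughout, for viability, T/C: 100% = DMSO vehicle control viability.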

C=CCn1c(=O)c2cnc(Nc3ccc(N4CCN(C)CC4)cc3)nc2n1-c1cccc(C(C)(C)O)n1 + CCN1CCN(Cc2ccc(Nc3ncc(F)c(-c4cc(F)c5nc(C)n(C(C)C)c5c4)n3)nc2)CC1 was tested, and the pIC50 (second compound 0.01 µM) was less than 5.00, the pIC50 (second compound 0.0316 µM) was less than 5.00 and the pIC50 (second compound 0.1 µM) was less than 5.00. It also gave a pIC50 (second compound 0.316 µM) of less than 5.00, a pIC50 (second compound 1 µM) of less than 5.00 and a viability, T/C [1] of 105%. The viability, T/C [2] was 95.3%, the viability, T/C (second compound 0.01 µM, first compound 0.316 µM) was 100% and the viability, T/C (second compound 0.01 µM, first compound 1 µM) was 90.4%. It also gave a viability, T/C (second compound 0.01 µM, first compound 3.16 µM) of 117%, a viability, T/C (second compound 0.01 µM, first compound 10 µM) of 141% and a viability, T/C [3] of 106%. For the same compound, the viability, T/C [4] was 99.5%, the viability, T/C (second compound 0.0316 µM, first compound 0.316 µM) was 90.9% and the viability, T/C (second compound 0.0316 µM, first compound 1 µM) was 99.1%. For the same compound, the viability, T/C (second compound 0.0316 µM, first compound 3.16 µM) was 101%, the viability, T/C (second compound 0.0316 µM, first compound 10 µM) was 133% and the viability, T/C [5] was 91.4%. It also gave a viability, T/C [6] of 98.7%, a viability, T/C (second compound 0.1 µM, first compound 0.316 µM) of 91.7% and a viability, T/C (second compound 0.1 µM, first compound 1 µM) of 90.3%. It also gave a viability, T/C (second compound 0.1 µM, first compound 3.16 µM) of 116%, a viability, T/C (second compound 0.1 µM, first compound 10 µM) of 141% and a viability, T/C [7] of 86.4%. The viability, T/C [8] was 96.2%, the viability, T/C (second compound 0.316 µM, first compound 0.316 µM) was 87.6% and the viability, T/C (second compound 0.316 µM, first compound 1 µM) was 94.1%. For the same compound, the viability, T/C (second compound 0.316 µM, first compound 3.16 µM) was 116%, the viability, T/C (second compound 0.316 µM, first compound 10 µM) was 144% and the viability, T/C [9] was 102%. For the same compound, the viability, T/C [10] was 109%, the viability, T/C (second compound 1 µM, first compound 0.316 µM) was 101% and the viability, T/C (second compound 1 µM, first compound 1 µM) was 105%. The viability, T/C (second compound 1 µM, first compound 3.16 µM) was 114% and the viability, T/C (second compound 1 µM, first compound 10 µM) was 134%.
Work on CC(C)n1nc(-c2ccc3oc(N)nc3c2)c2c(N)ncnc21 + CCN1CCN(Cc2ccc(Nc3ncc(F)c(-c4cc(F)c5nc(C)n(C(C)C)c5c4)n3)nc2)CC1 yielded a pIC50 (second compound 0.01 µM) of 7.22, a pIC50 (second compound 0.0316 µM) of 7.57 and a pIC50 (second compound 0.1 µM) of 7.28. For the same compound, the pIC50 (second compound 0.316 µM) was less than 7.00, the pIC50 (second compound 1 µM) was 7.16 and the viability, T/C (second compound 0.01 µM, first compound 0.000316 µM) was 102%. For the same compound, the viability, T/C (second compound 0.01 µM, first compound 0.001 µM) was 88%, the viability, T/C (second compound 0.01 µM, first compound 0.00316 µM) was 73.4% and the viability, T/C (second compound 0.01 µM, first compound 0.01 µM) was 76.5%. It also gave a viability, T/C [1] of 58.2%, a viability, T/C [2] of 42.2% and a viability, T/C (second compound 0.0316 µM, first compound 0.000316 µM) of 88%. The viability, T/C (second compound 0.0316 µM, first compound 0.001 µM) was 74.5%, the viability, T/C (second compound 0.0316 µM, first compound 0.00316 µM) was 90.8% and the viability, T/C (second compound 0.0316 µM, first compound 0.01 µM) was 71%. The viability, T/C [3] was 47.5%, the viability, T/C [4] was 38.7% and the viability, T/C (second compound 0.1 µM, first compound 0.000316 µM) was 93.6%. It also gave a viability, T/C (second compound 0.1 µM, first compound 0.001 µM) of 88.4%, a viability, T/C (second compound 0.1 µM, first compound 0.00316 µM) of 78.8% and a viability, T/C (second compound 0.1 µM, first compound 0.01 µM) of 68.1%. The viability, T/C [5] was 55.1%, the viability, T/C [6] was 43.6% and the viability, T/C (second compound 0.316 µM, first compound 0.000316 µM) was 96.5%. For the same compound, the viability, T/C (second compound 0.316 µM, first compound 0.001 µM) was 96.6%, the viability, T/C (second compound 0.316 µM, first compound 0.00316 µM) was 80% and the viability, T/C (second compound 0.316 µM, first compound 0.01 µM) was 56.5%. For the same compound, the viability, T/C [7] was 53.2%, the viability, T/C [8] was 50.2% and the viability, T/C (second compound 1 µM, first compound 0.000316 µM) was 88.8%. For the same compound, the viability, T/C (second compound 1 µM, first compound 0.001 µM) was 93.5%, the viability, T/C (second compound 1 µM, first compound 0.00316 µM) was 82.6% and the viability, T/C (second compound 1 µM, first compound 0.01 µM) was 61.3%. The viability, T/C [9] was 52.1% and the viability, T/C [10] was 48.6%.
